No end group written: not given here.
Tests used:
hMSCs = experiment: Loss of stemness: STRO-1 immunostaining of hMSCs cultured with compounds in solution; assay type: cell-based, Human; details: compound in cell culture media solution; for STRO-1 Expression (%) after 96 h: 400 ng/mL added every 24 h; for STRO-1 Expression (%) after 48 h: 400 ng/mL
From the text: The following starting materials and reagents were used: • Apatite ceramics (also called apatite or ceramic in the present invention) were synthetized as described in Mater Res. 2004; 7(4): 625-630. • Titanium was obtained from Goodfellow®. • Hydrogel (poly(acrylamide-co-acrylic acid) gel) was synthetized as described in Langmuir 2011; 27(22):13635-42. • PEEK was obtained from Goodfellow®. • PET (Poly(ethylene terephthtalate) was obtained from Goodfellow@. • Type-I collagen sponge was obtained from Sigma®. • Hexane was obtained from Sigma®. • 3-succinimidyl-3-maleimidopropionate (SMP) was obtained from Sigma®. • DMF was obtained from Sigma®. • PBS 1× was obtained from Gibco®. • 3-(ethoxydimethylsilyl)propylamine was obtained from Sigma®. • Ammonium persulfate was obtained from Biorad®. • N,N,N′,N′-tetramethylethylenediamine was obtained from Aldrich®. • Acrylamid was obtained from Merck®. • Acrylic acid was obtained from Merck®. • N,N-methylene-bis-acrylamide was obtained from Merck®. • NaOH was obtained from Aldrich®. • N,N,N′,N′-tetramethylethylenediamine was obtained from Aldrich®. • Dimethylaminopropyl-3-ethylcarbodiimide hydrochloride was obtained from Aldrich®. • N-hydroxysuccinimide was obtained from Aldrich®. • 2-(N-morpholino)-ethane sulfonic acid was obtained from Aldrich®. • MilliQ water: is water characterised in terms of resistivity (typically 18.2 MΩ·cm at 25° C.). • Low glucose Dulbecco's Modified Eagle Medium (DMEM) was obtained from Invitrogen® • Minimum Essential Medium Eagle without ascorbic acid (αMEM) was obtained from Invitrogen®. • All of the cell culture experiments were carried out without any serum in the medium for the first 8 hours of culture. • Osteoblast progenitors or precursor osteoblasts: MC3T3-E1 cells were obtained from ATCC®. These cells were cultured in Alpha-MEM medium supplemented with 10% fetal calf serum (FCS) and 1% penicillin/streptomycin. All cells were used at a low passage number (passage 7), were subconfluently cultured and were seeded at 10^4 cells/cm^2 for the purpose of the experiments. • Human bone marrow Mesenchymal Stem Cells (hMSCs) were obtained from Lonza®. These cells were cultured in Alpha-MEM supplemented with 10% (v/v) FBS and 1% penicillin/streptomycin and incubated in a humidified atmosphere containing 5% (v/v) CO2 at 37° C. All cells were used at a low passage number (passage 2 to 4), were subconfluently cultured and were seeded at 10^4 cells/cm^2 for the purpose of the experiments. • Human adipose Mesenchymal Stem Cells (haMSCs) were obtained from Lonza®. These cells were cultured in Alpha-MEM supplemented with 10% (v/v) FBS and 1% penicillin/streptomycin and incubated in a humidified atmosphere containing 5% (v/v) CO2 at 37° C. All cells were used at a low passage number (passage 3 to 4), were subconfluently cultured and were seeded at 10^4 cells/cm^2 for the purpose of the experiments. • Mouse Hair Follicle Stem Cells were isolated and cultured as described in Methods Mol Biol. 2010; 585:401-20. • Neuron cells are Neuronal Schwann Cells obtained from ATCC®. These cells were cultured in Dulbecco's Modified Eagle's Medium supplemented with 10% (v/v) FBS and 1% penicillin/streptomycin and incubated in a humidified atmosphere containing 5% (v/v) CO2 at 37° C. All cells were used at a low passage number (passage 6-8), were subconfluently cultured and were seeded at 10^4 cells/cm^2 for the purpose of the experiments. • Human umbilical-vein endothelial cells (HUVECs) were purchased from Promocell®. HUVECs were isolated and grown on gelatin coated culture flasks in a complete HUVEC culture medium (IMDM (Invitrogen, France) supplemented with 20% (v/v) fetal bovine serum (FBS) (PAA, France) and 0.4% (v/v) EC growth supplement/heparin kit (Promocell, France)). Cells were subcultured by using trypsin/EDTA (Invitrogen, France) and maintained in a humidified atmosphere containing 5% CO2 at 37° C. These cells were used at a passage number 3 to 5 for the purpose of the experiments. […]

[1] = system: Human Hematopoietic Stem Cells; experiment: Differentiation of human hematopoietic stem cells: loss of stemness marker CD-34+ (immunostaining); assay type: cell-based; details: compound in cell media solution, 400 ng/mL, 48 hours

APTGGSATSMLYYDKGVVTYLRKHRGGVVKDKGVVTY (also: cyclic, ring type not given here) [SEQ ID NO: 717]
STRO-1 Expression (%) after 96 h (hMSCs): 17% | STRO-1 Expression (%) after 48 h (hMSCs): 28%

APTLLNAISMLYFNDKQQIILKKYRLLVVRNDKQQII (also: cyclic, ring type not given here) [SEQ ID NO: 716]
STRO-1 Expression (%) after 96 h (hMSCs): 20% | STRO-1 Expression (%) after 48 h (hMSCs): 30%

APVAAKPLSMLYVDKGVVTYDHHKDAAVEEDEYDKVV (also: cyclic, ring type not given here) [SEQ ID NO: 722]
STRO-1 Expression (%) after 96 h (hMSCs): 18% | STRO-1 Expression (%) after 48 h (hMSCs): 31%

APVKMEPLPTVYYDDMGVPTEQLSNDMVEESGSLDDMGVPT (also: cyclic, ring type not given here) [SEQ ID NO: 746]
CD34+ Expression (%) [1]: 37%

ASASPSSAPVDLKPLSMLYVIGKTPKIDHHKDMIVEESKSIGKTPKID (also: cyclic, ring type not given here) [SEQ ID NO: 734]
STRO-1 Expression (%) after 48 h (hMSCs): 33%

ASASPSSVSQDLRSVKVAKVIGKTPKIKEVQVMIVKSSKIGKTPKID (also: cyclic, ring type not given here) [SEQ ID NO: 738]
STRO-1 Expression (%) after 48 h (hMSCs): 31%

AVPKASSVPQKLEPLTILYYDSSNNVIEQLSNNMVKSIGKTPKID (also: cyclic, ring type not given here) [SEQ ID NO: 736]
STRO-1 Expression (%) after 48 h (hMSCs): 37%

EPSSSRVRLEPLTTLYYGGGGGGGEQLSNVVEEHSKDKGVVTY (also: cyclic, ring type not given here) [SEQ ID NO: 745]
CD34+ Expression (%) [1]: 37%

EPSSVSQAAEPLPIVYYRIKPHOGQHEQLSNMIVKSSKSSDDMGVPT [SEQ ID NO: 747]
CD34+ Expression (%) [1]: 38%

HVTKPTSVPTKLSPISILFIDDSSNVIYKQYENMVVESSGSHIGKTPKID (also: cyclic, ring type not given here) [SEQ ID NO: 733]
STRO-1 Expression (%) after 48 h (hMSCs): 23%

IPKASSAPVGQRPVQMRKIDKGVVTYKKATVSSVEESGSLDKGVVTY (also: cyclic, ring type not given here) [SEQ ID NO: 739]
CD34+ Expression (%) [1]: 35%

KASSSRVKMSNITVQ1MRIKPHOGQHIGEMSVVEEHASGSHDKGVVTY (KASSSRVKMSNITVQIMRIKPHQGQHIGEMSVVEEHASGSHDKGVVTY; not fully specified (residue 23); printed as KASSSRVKMSNITVQ1MRIKPHOGQHIGEMSVVEEHASGSHDKGVVTY; also: cyclic, ring type not given here) [SEQ ID NO: 743]
CD34+ Expression (%) [1]: 42%

KASSVPQEERPVQMRKIGGGGGGGKKATVMIVRSSKSSDDMGVPT (also: cyclic, ring type not given here) [SEQ ID NO: 740]
CD34+ Expression (%) [1]: 31%

KIPKASSVPQELEPLPIVYYDENEKVVEQLSNDMVRSGSGSRDENEKV (also: cyclic, ring type not given here) [SEQ ID NO: 735]
STRO-1 Expression (%) after 48 h (hMSCs): 26%

NDEGLESVPTGQSPISILYIRIKPHQGQHYKQYELEEHSQSESRDENEKV (also: cyclic, ring type not given here) [SEQ ID NO: 732]
STRO-1 Expression (%) after 48 h (hMSCs): 27%

RVPSTSSAPVKTSNITMQIMDNGRVLLLGEMSMIVEESGSLIGKTPKID (also: cyclic, ring type not given here) [SEQ ID NO: 737]
STRO-1 Expression (%) after 48 h (hMSCs): 28%

SRVAARSVKMAKVGGGGGGGKEVQVAAEEHGGGGGG (also: cyclic, ring not given here) [SEQ ID NO: 726]
STRO-1 Expression (%) after 96 h (hMSCs): 21% | STRO-1 Expression (%) after 48 h (hMSCs): 39%

SRVLLRPVQMRKIDKGVVTYKKATVLLEEHDKGVVTY (also: cyclic, ring not given here) [SEQ ID NO: 729]
STRO-1 Expression (%) after 96 h (hMSCs): 14% | STRO-1 Expression (%) after 48 h (hMSCs): 37%

TPTSSSPINTLYFDDMGVPTYGKIPSSVVDDEYDKVV (also: cyclic, ring not given here) [SEQ ID NO: 720]
STRO-1 Expression (%) after 96 h (hMSCs): 14% | STRO-1 Expression (%) after 48 h (hMSCs): 21%

TQVAARPVQTRKIDDMGVPTKKATVAAEDHDKGVVTY (also: cyclic, ring not given here) [SEQ ID NO: 730]
STRO-1 Expression (%) after 96 h (hMSCs): 21% | STRO-1 Expression (%) after 48 h (hMSCs): 36%

VPEAASSLSMLFFEIVRKKPIFLKVYPAATVEDKGVVTY (also: cyclic, ring not given here) [SEQ ID NO: 714]
STRO-1 Expression (%) after 96 h (hMSCs): 18% | STRO-1 Expression (%) after 48 h (hMSCs): 28%

VPQAAEPLPMLYYDKGVVTYEQLSNAAVRSDKGVVTY (also: cyclic, ring not given here) [SEQ ID NO: 723]
STRO-1 Expression (%) after 96 h (hMSCs): 20% | STRO-1 Expression (%) after 48 h (hMSCs): 34%

VPQQQEPLTTLYYDEYDKVVEQLSNQQVKSNDKQQII (also: cyclic, ring not given here) [SEQ ID NO: 724]
STRO-1 Expression (%) after 96 h (hMSCs): 16% | STRO-1 Expression (%) after 48 h (hMSCs): 29%

VPQRLEPLTILYYDAANNVVEQLSNDMVKSDENEKV (also: cyclic, ring not given here) [SEQ ID NO: 731]
STRO-1 Expression (%) after 48 h (hMSCs): 31%

VPTAAEPISMLYLDEYDKVVKFKYEAAAVSNDKQQII (also: cyclic, ring not given here) [SEQ ID NO: 719]
STRO-1 Expression (%) after 96 h (hMSCs): 16% | STRO-1 Expression (%) after 48 h (hMSCs): 26%

VPTAASAISILYLDAANNVVLKNYQAAVVEDKGVVTY (also: cyclic, ring not given here) [SEQ ID NO: 713]
STRO-1 Expression (%) after 96 h (hMSCs): 23% | STRO-1 Expression (%) after 48 h (hMSCs): 29%

VPTDDSATSTLYYDKGVVTYLRKHRDDEHSDKGVVTY (also: cyclic, ring not given here) [SEQ ID NO: 727]
STRO-1 Expression (%) after 96 h (hMSCs): 13% | STRO-1 Expression (%) after 48 h (hMSCs): 26%

VPTGGEPLTTLYYNDKQQIIEQLSNGGEHSDDMGVPT (also: cyclic, ring not given here) [SEQ ID NO: 728]
STRO-1 Expression (%) after 96 h (hMSCs): 17% | STRO-1 Expression (%) after 48 h (hMSCs): 32%

VPTMMSNITTQIMRIKPHQGQHIGEMSMMQHNDEYDKVV (also: cyclic, ring not given here) [SEQ ID NO: 725]
STRO-1 Expression (%) after 96 h (hMSCs): 20% | STRO-1 Expression (%) after 48 h (hMSCs): 35%

VPTSSSPISTLYIDKGVVTYLKYHYSSVAEDEYDKVV (also: cyclic, ring not given here) [SEQ ID NO: 718]
STRO-1 Expression (%) after 96 h (hMSCs): 19% | STRO-1 Expression (%) after 48 h (hMSCs): 26%

VPTVVSAISTLYLRIKPHQGQHLKNYQVVVVENDKQQII (also: cyclic, ring not given here) [SEQ ID NO: 715]
STRO-1 Expression (%) after 96 h (hMSCs): 24% | STRO-1 Expression (%) after 48 h (hMSCs): 31%

VPTVVSPISMLYIDDMGVPTYKQYEVVVVEDDMGVPT (also: cyclic, ring not given here) [SEQ ID NO: 721]
STRO-1 Expression (%) after 96 h (hMSCs): 16% | STRO-1 Expression (%) after 48 h (hMSCs): 29%
